Results published in patent US5110797A, “Peptide compound and a pharmaceutically acceptable salt thereof” (Nippon Zoki Pharmaceutical Co., Ltd., priority 1985, dated 1992).

Legend:
[1] = system: Wistar-strain rats (hippocampus EEG); test: Neurotropic effect: EEG activity after injection into the hippocampus of freely moving rats; format: in vivo, rat; conditions: 100 ng to 10 μg in 2 μl saline injected unilaterally into the hippocampus
Experimental: (I) A neurotropic effect of the peptide compounds of the present invention was examined by the method of Maria-S. Oitzl and J. P. Huston [Brain research, 308, 33-42 (1984)].
Wistar-strain rats were implanted with a set of electrodes for recording EEG under anesthesia with pentobarbital (50 mg/kg, i.p.). The electrodes were bilaterally implanted into the hippocampus (Bregma -2.7 mm, Lateral 2.5 mm, Depth 2.8 mm) by reference to THE RAT BRAIN IN STEREOTAXIC COODINATES (George Paxion & Charles Watson, Academic press). Chemitorode, a injection guide cannula uniting with electrode for recording, was implanted in the temporoparietal left hole. The test drugs were unilaterally injected into the hippocampus of freely moving rats to examine their effect on EEG activity.
The rats were kept for about a week for a cure, and then used for the experiments. After the EEG activity was recorded for dozens of minutes in a normal state, 100 ng to 10 μg of the test drug dissolved in 2 μl of saline was injected into the hippocampus through the injection guide cannula. Only saline was used as a control. Immediately after the administration it began to record the EEG activity.

ddY-strain male mice = test: Analgesic effect, modified Randall-Selitto's test (Tale pressure method); format: in vivo; conditions: 0.1 μmole/mouse, intracisternal injection, test at 5 min after injection, groups of 10 mice; control 1.17 ± 0.12
Experimental: Groups of 10 ddY-strain male mice weighing 24-30 g were used for measurement of analgesic effect of the peptide compounds of the present invention by modified Randall-Selitto's test (Tale pressure method). Analgesic test was performed at 5 min after intracisternal injection of the test drugs.

Which results are given for `NCCCC(=O)O` [GABA, γ-Aminobutyric acid]?
time after administration at which characteristic EEG spikes appeared [1]: a few minutes; time after administration until which the EEG spikes continued [1]: about 25 min; Pain Index (ddY-strain male mice): 1.65 ± 0.13
